For three compounds, MIC and antibacterial activity results are on record in patent publication US3965103A, “4-Nitroperhydropyrido[1,2-a][1,4]diazepines” (Schering Aktiengesellschaft, priority 1973, dated 1976).

Values after ≈ are worked out from the molar mass of the structure shown. Read-outs that look alike come from different tables or passages of the source.

One assay relates to Chaet. glob. Description: Tube Dilution Test in liquid media. Type of assay: cell-based. The text has this: (§1) The above mentioned greater activity against dermatophytes, yeasts and other fungi compared to "Bronopol" is illustrated in Table 1:
(§2) MIC (μg./ml.) in the Tube Dilution Test in liquid media

In a further assay the test system is Pen. notat. The assay is described as follows: Tube Dilution Test in liquid media. Type of assay: cell-based.
Text: as §1, §2

The subject of a further assay is Asp. flav. The assay is described as follows: Tube Dilution Test in liquid media. The assay is classed as cell-based.
Text: as §1, §2

Another assay has as its system Trichoph. rubr. The assay is described as follows: Tube Dilution Test in liquid media. The assay is classed as cell-based.
Text: as §1, §2

For a further assay, the system named is Trichoph. ment. The assay is described as follows: Tube Dilution Test in liquid media. The assay is classed as cell-based.
Text: as §1, §2

The next assay relates to Mucor. pus. Description: Tube Dilution Test in liquid media. The assay is classed as cell-based.
Text: as §1, §2

Another assay deals with Asp. fum. The assay is described as follows: Tube Dilution Test in liquid media. The assay is classed as cell-based.
Text: as §1, §2

A further assay has as its system Paecilomyc. The assay is described as follows: Tube Dilution Test in liquid media. Type of assay: cell-based.
Text: as §1, §2

Another assay concerns Sacch. cer. Description: Tube Dilution Test in liquid media. The assay is classed as cell-based.
Text: as §1, §2

The next assay has as its system Asp. nig. Description: Tube Dilution Test in liquid media. Type of assay: cell-based.
Text: as §1, §2

For another assay, the system named is Microsp. gypseum. The assay is described as follows: Tube Dilution Test in liquid media. Type of assay: cell-based.
Text: as §1, §2

The next assay deals with Candid. alb. The assay is described as follows: Tube Dilution Test in liquid media. Type of assay: cell-based.
Text: as §1, §2

The subject of the next assay is bacteria. The conditions noted are these: known from U.S. Pat. No. 3,558,788; cited from earlier work.
Another assay deals with Fusar. Description: Tube Dilution Test in liquid media. The assay is classed as cell-based.
Text: as §1, §2

Setting [1] is: Sacch. cer., tube dilution test, liquid media, read-out: MIC.

The MIC is the least concentration at which growth counts as inhibited. Consider `CN1CC2CCCCN2CC(Cc2ccccc2)([N+](=O)[O-])C1.Cl.Cl` (centres unmarked) [4-Benzyl-2-methyl-4-nitroperhydropyrido[1,2-a] [1,4]-diazepine dihydrochloride], for which the MIC was found to be 63 µg/mL in the assay on Chaet. glob.; 125 µg/mL in the assay with Pen. notat.; 63 µg/mL in the assay on Asp. flav.; 2 µg/mL with Trichoph. rubr.; 4 µg/mL against Trichoph. ment.; 8 µg/mL with Mucor. pus.. Also, the MIC in the assay with Asp. fum. turned out to be 31 µg/mL; with Paecilomyc., 16 µg/mL; with Sacch. cer. (setting [1]), 4 µg/mL; against Asp. nig., 125 µg/mL; in the assay on Microsp. gypseum, 8 µg/mL; against Candid. alb., 4 µg/mL.
For `O=[N+]([O-])C(Br)(CO)CO` [Bronopol, 2-bromo-2-nitropropane-1,3-diol, reference compound], the MIC in the assay with Chaet. glob. is above 1000 µg/mL; against Pen. notat., above 1000 µg/mL; with Asp. flav., above 1000 µg/mL; in the assay on Trichoph. rubr. it was 4 µg/mL (≈ 20 µM); against Trichoph. ment., 8 µg/mL (≈ 40 µM); against Mucor. pus., 63 µg/mL (≈ 315 µM). Moreover, the MIC was 63 µg/mL (≈ 315 µM) against Asp. fum.; 250 µg/mL (≈ 1250 µM) in the assay on Paecilomyc.; 125 µg/mL (≈ 625 µM) against Sacch. cer.; above 1000 µg/mL in the assay with Asp. nig.; 16 µg/mL (≈ 80 µM) with Microsp. gypseum; 63 µg/mL (≈ 315 µM) against Candid. alb.. Also, the antibacterial activity entry with bacteria is given as “has antibacterial activity”.
For the compound `CCCCC1([N+](=O)[O-])CN(C)CC2CCCCN2C1.Cl.Cl` (centres unmarked) [4-n-Butyl-2-methyl-4-nitroperhydropyrido[1,2-a] [1,4] diazepine dihydrochloride], the MIC came to 8 µg/mL in the assay with Chaet. glob.; 8 µg/mL in the assay with Pen. notat.; 4 µg/mL against Asp. flav.; 2 µg/mL with Trichoph. rubr.; 16 µg/mL against Fusar.; 2 µg/mL with Trichoph. ment.. In addition, the MIC against Mucor. pus. came out at 2 µg/mL; in the assay on Asp. fum., 8 µg/mL; against Paecilomyc., 63 µg/mL; in the assay with Sacch. cer. (setting [1]) it was 4 µg/mL; in the assay on Asp. nig., 31 µg/mL; in the assay with Microsp. gypseum it was 8 µg/mL. Besides, in the assay with Candid. alb., the lowest concentration to inhibit growth (MIC) was 8 µg/mL.
